Like-named read-outs stand apart in the source and are kept apart here.
Columns and labels:
Daoy = assay: MTT cytotoxicity assay, Daoy; assay type: cell-based, human; settings: 72 h; for IC50: 0.05–50 µM; for cytotoxicity at 50 µM: read-out: % Cytotoxicity (50 µM) DAOY;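 on all read-outs here: viability read as formazan absorbance at 570 nm after MTT reduction, three independent biological replicates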
HEK293 = assay: MTT cytotoxicity assay, HEK293 control cells; assay type: cell-based, human; settings: MTT, 72 h, non-cancer cell line;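 further: Read-out is formazan absorbance at 570 nm from MTT reduction in 96-well plates, with three independent biological replicates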
HT29 = assay: MTT cytotoxicity assay, HT29; assay type: cell-based; settings: Homo sapiens; for cytotoxicity at 50 µM: read-out: % Cytotoxicity (50 µM) HT29; for IC50: 0.05–50 µM
Protocol: (§1) Cytotoxicity assays were performed by using the MTT reduction method as described previously. Briefly, cancer cell lines were plated in flat-bottom 96-well plates at a cell concentration of 5 × 10^3 cells/well for the fastest growing lines, such as HEK293 and HT29 cells and 1 × 10^4 cells/well for more slowly growing lines, such as HCT116, H1975, BxPC-3, AsPC-1, B16-F10 and DAOY. Then, cells were incubated with the synthesised compounds at different concentrations (from 0.05 to 50 µM) in 200 µL with 10% FBS in RPMI 1640 or DMEM F12 culture medium at 37 °C for 72 h. Later, 10 µL of MTT were added at a final concentration of 0.5 mg/mL, incubated at 37 °C for 4 h, and then solubilised with 10% sodium dodecyl sulphate (SDS) in 0.1 mM HCl and incubated overnight at 37 °C. Formazan formation was measured at 570 nm in a multiwell plate reader (Cytation 5, Biotek Instruments, Winooski, VT, USA). Three independent biological replicates were performed.

BxPC-3 = assay: MTT cytotoxicity assay, BxPC-3; assay type: cell-based; settings: Homo sapiens, 72 h, 0.05–50 µM
Protocol: as §1

H1975 = assay: MTT cytotoxicity assay, H1975; assay type: cell-based; settings: Homo sapiens; for cytotoxicity at 50 µM: read-out: % Cytotoxicity (50 µM) H1975; for IC50: 0.05–50 µM
Protocol: as §1

[1] = MTT cytotoxicity assay, HEK293 control cells; assay type: cell-based, human; settings: human, HEK293 cells; 50 µM, 72 h, MTT;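 further: Read-out is formazan absorbance at 570 nm from MTT reduction in 96-well plates, with three independent biological replicates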
AsPC-1 = assay: MTT cytotoxicity assay, AsPC-1; assay type: cell-based; settings: Homo sapiens, ASPC1, 72 h, 0.05–50 µM
Protocol: as §1

HCT116 = assay: MTT cytotoxicity assay, HCT116; assay type: cell-based; settings: Homo sapiens; for cytotoxicity at 50 µM: read-out: % Cytotoxicity (50 µM) HCT116; for IC50: 0.05–50 µM
Protocol: as §1

Row | SMILES | IC50 (Daoy; MTT) | IC50 (HEK293) | cytotoxicity at 50 µM (HT29; HT-29, 50 µM, 72 h, MTT) | IC50 (HT29; HT-29, MTT, 72 h) | IC50 (Daoy; Homo sapiens, Daoy, MTT) | cytotoxicity at 50 µM (Daoy; Homo sapiens, Daoy, 50 µM, MTT) | IC50 (BxPC-3) | cytotoxicity at 50 µM (H1975; NCI-H1975, 50 µM, 72 h, MTT) | IC50 (H1975; NCI-H1975, MTT, 72 h) | IC50 (HEK293; Homo sapiens, HEK293) | cytotoxicity at 72 h, 50 µM [1] | IC50 (AsPC-1) | cytotoxicity at 50 µM (HCT116; HCT-116, 50 µM, 72 h, MTT) | IC50 (HCT116; HCT-116, MTT, 72 h) | melting point | cytotoxicity at 50 µM (HT29; HT-29, 72 h) | cytotoxicity at 50 µM (Daoy; Homo sapiens, Daoy) | cytotoxicity at 50 µM (H1975; NCI-H1975, 72 h) | cytotoxicity at 50 µM (HCT116; HCT-116, 72 h)
1 | N.N.[Cl][Pt][Cl] [Cisplatin, reference compound] | 12 ± 0.7 µM | 12 ± 1.4 µM | – | – | – | – | – | – | – | – | – | – | – | – | – | – | – | – | –
2 | CCCCn1cnc2c(-c3ccc(OC(F)(F)F)cc3)nc(NC3CCCC3)nc21 [Compound 4a, 9-Butyl-N-cyclopentyl-6-(4-(trifluoromethoxy)phenyl)-9H-purin-2-amine] | – | – | < 50% | > 50 µM | 18 ± 0.2 µM | 82 ± 6.2% | > 50 µM | 66 ± 0.9% | 34 ± 0.9 µM | > 50 µM | < 50% | 20.1 ± 0.3 µM | 68 ± 0.3% | 32 ± 0.3 µM | 93 to 95 °C | – | – | – | –
3 | CCCCCn1cnc2c(-c3ccc(OC(F)(F)F)cc3)nc(NC3CCCC3)nc21 [Compound 4b, N-cyclopentyl-9-pentyl-6-(4-(trifluoromethoxy)phenyl)-9H-purin-2-amine] | – | – | – | > 50 µM | > 50 µM | – | > 50 µM | – | 30 ± 1 µM | > 50 µM | < 50% | 23.2 ± 0.2 µM | – | 47 ± 0.9 µM | – | < 50% | 94 ± 0.4% | 30 ± 1% | 53 ± 0.9%
4 | CCCCCCn1cnc2c(-c3ccc(OC(F)(F)F)cc3)nc(NC3CCCC3)nc21 [Compound 4c, N-cyclopentyl-9-hexyl-6-(4-(trifluoromethoxy)phenyl)-9H-purin-2-amine] | – | – | – | > 50 µM | 31 ± 0.9 µM | – | > 50 µM | – | 19 ± 0.8 µM | > 50 µM | < 50% | > 50 µM | – | > 50 µM | 58 to 60 °C | < 50% | 69 ± 0.9% | 19 ± 0.8% | < 50%
5 | CCCCn1cnc2c(-c3ccc(OC(F)(F)F)cc3)nc(NC3CCCCC3)nc21 [Compound 4d, 9-Butyl-N-cyclohexyl-6-(4-(trifluoromethoxy)phenyl)-9H-purin-2-amine] | – | – | < 50% | – | – | < 50% | – | < 50% | – | – | < 50% | – | < 50% | – | – | – | – | – | –
6 | CCCCCCn1cnc2c(-c3ccc(OC(F)(F)F)cc3)nc(NC3CCCCC3)nc21 [Compound 4f, N-cyclohexyl-9-hexyl-6-(4-(trifluoromethoxy)phenyl)-9H-purin-2-amine] | – | – | < 50% | – | – | < 50% | – | < 50% | – | – | < 50% | – | < 50% | – | 84 to 86 °C | – | – | – | –
7 | CCCCn1cnc2c(-c3ccc(OC(F)(F)F)cc3)nc(NCC3CCCCC3)nc21 [Compound 4g, 9-Butyl-N-(cyclohexylmethyl)-6-(4-(trifluoromethoxy)phenyl)-9H-purin-2-amine] | – | – | < 50% | – | – | < 50% | – | < 50% | – | – | < 50% | – | < 50% | – | 88 to 89 °C | – | – | – | –
8 | CCCCCCn1cnc2c(-c3ccc(OC(F)(F)F)cc3)nc(NCC3CCCCC3)nc21 [Compound 4i, N-(cyclohexylmethyl)-9-hexyl-6-(4-(trifluoromethoxy)phenyl)-9H-purin-2-amine] | – | – | < 50% | – | – | < 50% | – | < 50% | – | – | < 50% | – | < 50% | – | – | – | – | – | –
9 | CCCCCn1cnc2c(-c3ccc(OC(F)(F)F)cc3)nc(N3CCN(c4ccccc4)CC3)nc21 [Compound 4j, 9-Pentyl-2-(4-phenylpiperazin-1-yl)-6-(4-(trifluoromethoxy)phenyl)-9H-purine] | – | – | < 50% | – | – | < 50% | – | < 50% | – | – | < 50% | – | < 50% | – | – | – | – | – | –

— article PMC8395040 (International Journal of Molecular Sciences, 2021)
